Experimental data taken from patent US7273877B2, “5-substituted-4-[(substituted phenyl) amino]-2-pyridone derivatives” (Warner-Lambert Company, LLC, priority 2003, dated 2007).

Experiments:
[1] = tested on: phosphorylation of MAP kinase (ERK) in murine colon 26 (C26) carcinoma cells; assay: Cellular inhibition of ERK phosphorylation, C26ELSA (pERK ELISA format); format: cell-based; details: Mus musculus, 1 h, C26 cells treated with test compound for one hour at 37° C.
Experimental: (§1) MEK inhibitors were evaluated by determining their ability to inhibit phosphorylation of MAP kinase (ERK) in murine colon 26 (C26) carcinoma cells. Since ERK1 and ERK2 represent the only known substrates for MEK1and MEK2, the measurement of inhibition of ERK phosphorylation in cells provides direct read out of cellular MEK inhibition by the compounds of the invention. Detection of phosphorylation of ERK was carried out either by Western blot or ELISA format. Briefly, the assays involve treatment of exponentially growing C26 cells with varying concentrations of the test compound (or vehicle control) for one hour at 37° C. For Western blot assay, cells were rinsed free of compound/vehicle and lysed in a solution containing 70 mM NaCl, 50 mM glycerol phosphate, 10 mM HEPES, pH 7.4, 1% Triton X-100, 1 mM Na3VO4, 100 μM PMSF, 10 μM leupeptin and 10 μM pepstatin. Supernatants were then subjected to gel electrophoresis and hybridized to a primary antibody recognizing dually phosphorylated ERK1 and ERK2. To evaluate total MAPK levels, blots were subsequently ‘stripped’ and re-probed with a 1:1 mixture of polyclonal antibodies recognizing unphosphorylated ERK1 and ERK2. For pERK ELISA assay, pERK TiterZyme Enzyme immunometric Assay kits were acquired from Assay Designs, Inc (Ann Arbor, Mich.). Briefly, cells were harvested in lysis solution containing 50 mM β-glycerophosphate, 10 mM HEPES, ph7.4, 70 mM NaCl, 2 mM EDTA and 1% SDS and protein lysates were diluted 1:15 with supplied Assay buffer prior to the execution of the assay. The subsequent steps were carried out essentially as recommended by the manufacturer.
(§2) The inhibition data generated by the above protocols is disclosed in Table I. If several concentrations of inhibitor were tested, IC50 values (the concentration which gives 50% inhibition) were determined graphically from the dose response curve for % inhibition. Otherwise, percent inhibitions at measured concentrations are reported.

[2] = tested on: phosphorylation of MAP kinase (ERK) in murine colon 26 (C26) carcinoma cells; assay: Cellular inhibition of ERK phosphorylation, C26CPA1; format: cell-based; details: Mus musculus, 1 h; C26 cells treated with test compound for one hour at 37° C.
Experimental: as §1, §2

| SMILES | IC50 [1] [µM] | IC50 [2] [µM] | melting point [°C] |
| --- | --- | --- | --- |
| Cn1cc(C(=O)NOCCO)c(Nc2ccc(I)cc2F)cc1=O [Example 1, 4-(2-Fluoro-4-iodoanilino)-N-(2-hydroxyethoxy)-1-methyl-6-oxo-1,6-dihydro-3-pyridinecarboxamide] | 0.0049 | 0.0438 | 148 to 151 |
| Cn1cc(C(=O)NCCCO)c(Nc2ccc(I)cc2F)cc1=O [Example 5, 4-(2-Fluoro-4-iodoanilino)-N-(3-hydroxypropyl)-1-methyl-6-oxo-1,6-dihydro-3-pyridinecarboxamide] |  | 0.06 | 81 to 86 |
| Cn1cc(C(=O)NCCO)c(Nc2ccc(CCCO)cc2F)cc1=O [Example 7, 4-[2-Fluoro-4-(3-hydroxypropyl)anilino]-N-(2-hydroxyethyl)-1-methyl-6-oxo-1,6-dihydro-3-pyridinecarboxamide] | ≥ 5 |  | 177 to 179 |
| Cn1cc(C(=O)NCCCO)c(Nc2ccc(CCCO)cc2F)cc1=O [Example 9, 4-[2-Fluoro-4-(3-hydroxypropyl)anilino]-N-(3-hydroxypropyl)-1-methyl-6-oxo-1,6-dihydro-3-pyridinecarboxamide] | ≥ 5 |  | 161 to 164 |
| O=C(NCCO)c1c[nH]c(=O)cc1Nc1ccc(I)cc1F [Example 11, 4-(2-Fluoro-4-iodoanilino)-N-(2-hydroxyethyl)-6-oxo-1,6-dihydro-3-pyridinecarboxamide] | ≥ 5 |  | 254 to 256 |
| O=C(NCCCO)c1c[nH]c(=O)cc1Nc1ccc(I)cc1F [Example 14, 4-(2-Fluoro-4-iodoanilino)-N-(3-hydroxypropyl)-6-oxo-1,6-dihydro-3-pyridinecarboxamide] | ≥ 5 |  | 253 to 255 |
| C#Cc1ccc(Nc2cc(=O)n(C)cc2C(N)=O)c(F)c1 [Example 17, 4-(4-Ethynyl-2-fluoroanilino)-1-methyl-6-oxo-1,6-dihydro-3-pyridinecarboxamide] | 0.021 |  | 269 to 272 |
| NC(=O)c1c[nH]c(=O)cc1Nc1ccc(I)cc1F [Example 19, 4-(2-Fluoro-4-iodoanilino)-6-oxo-1,6-dihydro-3-pyridinecarboxamide] | 0.11 |  | 320 to 325 |
| Cn1cc(C(N)=O)c(Nc2ccc(CCCO)cc2F)cc1=O [Example 21, 4-[2-Fluoro-4-(3-hydroxypropyl)anilino}-1-methyl-6-oxo-1,6-dihydro-3-pyridinecarboxamide] | 0.63 |  | 214 to 216 |
| O=C(O)Cn1cc(C(=O)NCCCO)c(Nc2ccc(I)cc2F)cc1=O [Example 24, (4-(2-Fluoro-4-iodoanilino)-5-{[(3-hydroxypropyl)amino]carbonyl}-2-oxo-1(2H)-pyridinyl)acetic acid] | ≥ 5 |  | 199 to 202 |
| C=CCn1cc(C(N)=O)c(Nc2ccc(I)cc2F)cc1=O [Example 30, 1-Allyl-4-(2-fluoro-4-iodoanilino)-6-oxo-1,6-dihydro-3-pyridinecarboxamide] | 0.43 |  | 215 to 217 |
| NC(=O)c1cn(CC(O)CO)c(=O)cc1Nc1ccc(I)cc1F (stereo not shown) [Example 31, 1-(2,3-Dihydroxypropyl)-4-(2-fluoro-4-iodoanilino)-6-oxo-1,6-dihydro-3-pyridinecarboxamide] |  | 1.41 | 210 to 213 |
| Cc1ccc(Nc2cc(=O)n(C)cc2C(N)=O)c(F)c1 [Example 37, 4-(2-Fluoro-4-methylanilino)-1-methyl-6-oxo-1,6-dihydro-3-pyridinecarboxamide] | ≥ 5 |  | 285 to 288 |
| Cn1cc(C(N)=O)c(Nc2ccc(Br)cc2F)cc1=O [Example 40, 4-(4-Bromo-2-fluoroanilino)-1-methyl-6-oxo-1,6-dihydro-3-pyridinecarboxamide] | 0.12 |  | 282 to 284 |
| Cn1cc(C(=O)NCCCO)c(Nc2ccc3ccccc3c2)cc1=O [Example 42, N-(3-Hydroxypropyl)-1-methyl-4-(2-naphthylamino)-6-oxo-1,6-dihydro-3-pyridinecarboxamide] | 0.093 |  | 78 to 83 |
| Cn1cc(C(=O)NC(CO)(CO)CO)c(Nc2ccc(I)cc2F)cc1=O [Example 47, 4-(2-Fluoro-4-iodoanilino)-N-[2-hydroxy-1,1-bis(hydroxymethyl)ethyl]-1-methyl-6-oxo-1,6-dihydro-3-pyridinecarboxamide] | ≥ 5 |  | 100 to 105 |
| Cn1cc(C(=O)OCC(N)(CO)CO)c(Nc2ccc(I)cc2F)cc1=O [Example 48, 2-Amino-3-hydroxy-2-(hydroxymethyl)propyl-4-(2-fluoro-4-iodoanilino)-1-methyl-6-oxo-1,6-dihydro-3-pyridinecarboxylate] | ≥ 5 |  | 117 to 122 |
| CNC(=O)c1cn(C)c(=O)cc1Nc1ccc(I)cc1F [Example 51, 4-(2-Fluoro-4-iodoanilino)-N,1-dimethyl-6-oxo-1,6-dihydro-3-pyridinecarboxamide] | ≥ 5 |  | 252 to 254 |
| CCOC(=O)c1cn(C)c(=O)cc1Nc1ccc(C)c(C)c1 [Example 57, 4-(3,4-Dimethyl-phenylamino)-1-methyl-6-oxo-1,6-dihydro-pyridine-3-carboxylic acid ethyl ester] | ≥ 5 |  | 153 to 154 |
| CCOC(=O)c1cn(C)c(=O)cc1Nc1ccc2c(c1)CCC2 [Example 58, 4-(Indan-5-ylamino)-1-methyl-6-oxo-1,6-dihydro-pyridine-3-carboxylic acid ethyl ester] | 3.9 |  | 141 to 143 |
| Cn1cc(C(N)=O)c(Nc2ccc(Cl)c(Cl)c2Cl)cc1=O [Example 67, 1-Methyl-6-oxo-4-(2,3,4-trichloro-phenylamino)-1,6-dihydro-pyridine-3-carboxylic acid amide] |  | 0.076 |  |
| CSc1ccc(Nc2cc(=O)n(C)cc2C(=O)NC(CO)CO)c(F)c1 [Example 89, 4-(2-Fluoro-4-methylsulfoanyl-phenylamino)-1-methyl-6-oxo-1,6, dihydro-pyridine-3-carboxylic acid (2-hydroxy-1-hydroxymethyl-ethyl)-amide] |  | 2.81 |  |
| CSc1ccc(Nc2cc(=O)n(C)cc2-c2nnc(NCCO)o2)c(F)c1 [Example 90, 4-(2-Fluoro-4-methylsulfanyl-phenylamino)-5-[5-(2-hydroxy-ethylamino)[1,3,4]oxadiazol-2-yl]-1-methyl-1H-pyridin-2-one] | > 5 |  |  |
| CSc1ccc(Nc2cc(=O)n(C)cc2-c2nnc(NC(CO)CO)o2)c(F)c1 [Example 91, 4-(2-Fluoro-4-methylsulfanyl-phenylamino)-5-[5-(2-hydroxy-1-hydroxymethyl-ethylamino)-[1,3,4]oxadiazol-2-yl]-1-methyl-1H-pyridin-2-one] | > 1 |  |  |
| CSc1ccc(Nc2cc(=O)n(C)cc2-c2nnc(NCC(O)CO)o2)c(F)c1 (stereo not shown) [Example 92, 5-[5-(2,3-dihydroxy-propylamino)-[1,3,4]oxadiazol-2-yl]-4-(2-fluoro-4-methylsulfanyl-phenylamino)-1-methyl-1H-pyridine-2-one] | 1.24 |  |  |
